Measured values taken from patent publication US20240299433A1, “PHARMACEUTICAL COMPOSITION CONTAINING AUCUBIN FOR PREVENTING OR TREATING MACULAR DEGENERATION” (INDUSTRIAL COOPERATION FOUNDATION JEONBUK NATIONAL …, priority 2019, published 2024).

How the values were obtained:
[1] = system: N-methyl-N-nitrosourea (MNU)-induced photoreceptor cell degeneration mouse; assay: Histopathology (H&E), outer nuclear layer thickness of retinal tissue; type: in vivo, C57BL/6 mice; settings: aucubin 15 mg/kg/day orally for 7 days; MNU 60 mg/kg intraperitoneally
Description: (§1) Six-week-old male C57BL/6 mice were purchased from Orient (Seongnam, Korea) and used after acclimatization for 1 week. N-methyl-N-nitrosourea (MNU, Sigma, USA) was prepared to a concentration of 1% in 0.05% acetic acid solution to induce damage and degeneration of photoreceptor cells among the morphologic changes in retinal tissue seen in macular degeneration, and 7-week-old male C57BL/6 mice were administered 1% MNU solution intraperitoneally at 60 mg/kg per animal. In the normal group, only an equivalent amount of 0.05% acetic acid was administered intraperitoneally. […] The inventors measured the electroretinogram. […] After the pupils were dilated, an appropriate amount of 1% methylcellulose was applied to the eyes while maintaining body temperature, and a gold wire loop recording electrode was grounded to the cornea, a reference electrode was placed on the cheek area, and a ground electrode was grounded to the tail, and the ERG was measured using a Retiport (Roland consult, Germany). […]
After the end of study drug (aucubin) administration, necropsy was performed and the eyes were enucleated, fixed in 10% neutralized formalin for 1 day, and embedded in paraffin to prepare slide sections. […] Photoreceptor cell damage & deformation was assessed by measuring the change in thickness of the outer nuclear layer (ONL) of retinal tissue. […]

[2] = system: N-methyl-N-nitrosourea (MNU)-induced photoreceptor cell degeneration mouse; assay: TUNEL staining of retinal sections (anti-apoptotic effect); type: in vivo, C57BL/6 mice; settings: aucubin 15 mg/kg/day orally for 7 days; versus MNU-treated group
Description: as §1, with “intraperitoneally. Aucubin was prepared by dissolving in sterile tertiary distilled water to a concentration of 15 mg/kg/day and administered orally once daily for 7 days starting on the same day as MNU administration.” for “intraperitoneally.”
Retinal sections were made 4 μm thick. […] In the MNU-treated group, a number of apoptotic cells were observed, but these were mainly detected in the outer nuclear layer.

[3] = system: N-methyl-N-nitrosourea (MNU)-induced photoreceptor cell degeneration mouse; assay: 8-OHdG immunohistochemical staining of retinal sections (antioxidant effect); type: in vivo, C57BL/6 mice; settings: aucubin 15 mg/kg/day orally for 7 days; compared to the MNU-treated group
Description: as §1
The formation of 8-hydroxydeoxyguanosine (8-OHdG) induced by the oxidation of guanine is a well-known marker for oxidative DNA damage. […] The Invision kit (DAKO, Carpinteria, CA, USA) detected signals visualized with aminoethylcarbazole. […]

[4] = system: primary cultured retinal cells; assay: Oxidative stress (DCFH fluorescent probe) in primary cultured retinal cells; type: cell-based, C57BL/6 mice; settings: aucubin in presence of MNU 100 μg/mL, 24 hours
[5] = system: primary cultured retinal cells; assay: Apoptosis (TUNEL staining) in primary cultured retinal cells; type: cell-based, C57BL/6 mice; settings: aucubin in presence of MNU 100 μg/mL, 24 hours
Description: Cells were resuspended in the above medium without DNase. […] MNU treatment was cytotoxic in retinal cells. […] Apoptotic cells were measured by TUNEL staining.

[6] = system: primary cultured retinal cells; assay: Cell viability (MTS assay) of primary cultured retinal cells; settings: 24 hours
Description: Retinas were isolated by eye enucleation from C57BL/6 mice (Orient Bio, Seoul, Korea) and dissociated with papain for 15 minutes at 37° C. Neuronal basal medium (Gibco) containing ovomucoid (Sigma Aldrich) and DNase (Sigma Aldrich) was added, and cells were centrifuged at 100×g for 8 min. Cells were resuspended in the above medium without DNase. Retinal cells were maintained in neurobasal medium with L-glutamine and B27 supplement (Gibco). Retinal cells were identified by immunostaining for rhodopsin (a marker for membrane photoreceptor cells) and glial fibrillary acidic protein (Muller glia). The cultured cells contained 65% rod photoreceptor cells and 28% Muller glia. Retinal cells were plated (1*10^4 cells/well) in 96-well plates for 24 hours, and the medium was exchanged with different concentrations of aucubin in the presence or absence of MNU (100 μg/mL) and cultured for 24 hours. Cell viability was then examined using a cell proliferation assay reagent (MTS assay kit, Promega Corporation, Madison, WI, USA).

[7] = system: N-methyl-N-nitrosourea (MNU)-induced photoreceptor cell degeneration mouse; assay: Electroretinogram (ERG) in MNU-induced photoreceptor cell degeneration mouse; type: in vivo, C57BL/6 mice; settings: MNU 60 mg/kg intraperitoneally, mice
Description: Six-week-old male C57BL/6 mice were purchased from Orient (Seongnam, Korea) and used after acclimatization for 1 week. N-methyl-N-nitrosourea (MNU, Sigma, USA) was prepared to a concentration of 1% in 0.05% acetic acid solution to induce damage and degeneration of photoreceptor cells among the morphologic changes in retinal tissue seen in macular degeneration, and 7-week-old male C57BL/6 mice were administered 1% MNU solution intraperitoneally at 60 mg/kg per animal. In the normal group, only an equivalent amount of 0.05% acetic acid was administered intraperitoneally. Aucubin was prepared by dissolving in sterile tertiary distilled water to a concentration of 15 mg/kg/day and administered orally once daily for 7 days starting on the same day as MNU administration. An electroretinogram (ERG) is a record of the electrical signals generated by the […] in response to light and is used as an indicator of retinal damage or disease. The inventors measured the electroretinogram. […] After the pupils were dilated, an appropriate amount of 1% methylcellulose was applied to the eyes while maintaining body temperature, and a gold wire loop recording electrode was grounded to the cornea, a reference electrode was placed on the cheek area, and a ground electrode was grounded to the tail, and the ERG was measured using a Retiport (Roland consult, Germany). […]

Compound | reduction of photoreceptor cell loss (ONL thickness) [1] [%+2.9%] | photoreceptor cell death (TUNEL-positive apoptotic cells) in retina [2] | 8-OHdG levels (oxidative DNA damage) in retina [3] | oxidative stress (DCFH dye) [4] | apoptotic cells (TUNEL staining) [5] | cell viability in presence of MNU ([6]; various concentrations of aucubin, MNU 100 μg/mL) | reduction of a-wave amplitude [7] [%] | reduction of b-wave amplitude [7] [%] | cell viability compared to control cells ([6]; 100 μg/ml MNU alone)
OCC1=C[C@@H](O)[C@@H]2C=CO[C@@H](O[C@@H]3O[C@H](CO)[C@@H](O)[C@H](O)[C@H]3O)[C@H]12 [aucubin] | 9.8 | significantly prevented this cell death | significantly reduced | significantly decreased | significantly decreased | cell viability was restored in a dose-dependent manner |  |  | 
CN(N=O)C(N)=O [MNU, N-methyl-N-nitrosourea] |  |  |  |  |  |  | 78 | 63 | approximately 70%
